US20070141341A1, “Coating containing denatured aloe vera, for covering either chlorine-generating compositions or other hazardous chemicals and method for making” (priority 2005, published 2007)

Test system: E. coli
Assay: Reductions of E. coli organisms

O=c1n(Cl)c(=O)n(Cl)c(=O)n1Cl [Uncoated ACL, trichloroisocyanuric acid]
E. coli remaining after 5 minutes (after 5 minutes): 0
E. coli remaining after: ½ hour (after ½ hour): Slightly
